In one series the test system is Podosphaera leucotricha. Put plainly: Podosphaera test (apple)/protective. Type of series: in vivo. The following applies: protective, application rate 100 g/ha, evaluation 10 days after inoculation. Here is the method:
(§1) • Solvents: 24.5 parts by weight of acetone • 24.5 parts by weight of dimethylacetamide • Emulsifier: 1 part by weight of alkylaryl polyglycol ether
(§2) To produce a suitable preparation of active compound, 1 part by weight of active compound is mixed with the stated amounts of solvents and emulsifier, and the concentrate is diluted with water to the desired concentration.
To test for protective activity, young plants are sprayed with the preparation of active compound at the stated application rate. After the spray coating has dried on, the plants are inoculated with an aqueous spore suspension of the apple mildew pathogen Podosphaera leucotricha. The plants are then placed in a greenhouse at about 23° C. and a relative atmospheric humidity of about 70%.
(§3) Evaluation is carried out 10 days after the inoculation. 0% means an efficacy which corresponds to that of the control, whereas an efficacy of 100% means that no infection is observed.

Another series deals with Botrytis cinerea. Put plainly: Botrytis test (bean)/protective. The series is classed as in vivo. Particulars: protective, application rate 500 g/ha, evaluation 2 days after inoculation. On the procedure: as §1
To produce a suitable preparation of active compound, 1 part by weight of active compound is mixed with the stated amounts of solvent and emulsifier, and the concentrate is diluted with water to the desired concentration.
To test for protective activity, young plants are sprayed with the preparation of active compound at the stated application rate. After the spray coating has dried on, 2 small pieces of agar colonized by Botrytis cinerea are placed onto each leaf. The inoculated plants are placed in a dark chamber at about 20° C. and 100% relative atmospheric humidity.
2 days after the inoculation, the size of the infected areas on the leaves is evaluated. 0% means an efficacy which corresponds to that of the control, whereas an efficacy of 100% means that no infection is observed.

The test system of the next series is Venturia inaequalis. Put plainly: Venturia test (apple)/protective. The series is classed as in vivo. Particulars: protective, application rate 100 g/ha, evaluation 10 days after inoculation. Here is the method: as §1, §2
To test for protective activity, young plants are sprayed with the preparation of active compound at the stated application rate. After the spray coating has dried on, the plants are inoculated with an aqueous conidia suspension of the apple scab pathogen Venturia inaequalis and then remain in an incubation cabinet at about 20° C. and 100% relative atmospheric humidity for one day.
The plants are then placed in a greenhouse at about 21° C. and a relative atmospheric humidity of about 90%.
as §3

The nature of series [1]: log P determination by HPLC on reversed-phase column (EEC Directive 79/831 Annexe V.A8). Particulars: reversed-phase HPLC column (C 18), pH 2.3, C 18, 43° C., preparation examples. Type of series: physicochemical. Here is the method:
The log P values given in the preparation examples and tables above are determined in accordance with EEC Directive 79/831 Annexe V.A8 by HPLC (High Performance Liquid Chromatography) on a reversed-phase column (C 18). Temperature: 43° C.
The determination in the acidic range is carried out at pH 2.3 using the mobile phases 0.1% aqueous phosphoric acid and acetonitrile; linear gradient from 10% acetonitrile to 90% acetonitrile.
Calibration was carried out using unbranched alkan-2-ones (with 3 to 16 carbon atoms) with known log P values (determination of the log P values by the retention times using linear interpolation between two successive alkanones).

A further series has as its system Puccinia recondita. In words: Puccinia test (wheat)/protective. Particulars: protective, application rate 500 g/ha, evaluation 10 days after inoculation. The series is classed as in vivo. Here is the method:
• Solvent: 25 parts by weight of N,N-dimethylacetamide • Emulsifier: 0.6 part by weight of alkylaryl polyglycol ether To produce a suitable preparation of active compound, 1 part by weight of active compound is mixed with the stated amounts of solvent and emulsifier, and the concentrate is diluted with water to the desired concentration. To test for protective activity, young plants are sprayed with the preparation of active compound at the stated application rate. After the spray coating has dried on, the plants are sprayed with a conidia suspension of Puccinia recondita. The plants remain in an incubation cabinet at 20° C. and 100% relative atmospheric humidity for 48 hours. The plants are then placed in a greenhouse at a temperature of about 20° C. and a relative atmospheric humidity of 80% to promote the development of rust pustules. Evaluation is carried out 10 days after the inoculation. 0% means an efficacy which corresponds to that of the control, whereas an efficacy of 100% means that no infection is observed.

A further series deals with Sphaerotheca fuliginea. Put plainly: Sphaerotheca test (cucumber)/protective. Type of series: in vivo. The following applies: protective, application rate 750 g/ha, evaluation 7 days after inoculation. Here is the method:
• Solvent: 49 parts by weight of N,N-dimethylformamide • Emulsifier: 1 part by weight of alkylaryl polyglycol ether To produce a suitable preparation of active compound, 1 part by weight of active compound is mixed with the stated amounts of solvent and emulsifier, and the concentrate is diluted with water to the desired concentration. To test for protective activity, young cucumber plants are sprayed with the preparation of active compound at the stated application rate. 1 day after the treatment, the plants are inoculated with a spore suspension of Sphaerotheca fuliginea. The plants are then placed in a greenhouse at 70% relative atmospheric humidity and a temperature of 23° C. Evaluation is carried out 7 days after the inoculation. 0% means an efficacy which corresponds to that of the control, whereas an efficacy of 100% means that no infection is observed.

Usually chromatographic logP stands for lipophilicity estimated from chromatographic retention. A lower chromatographic logP goes with a more hydrophilic compound.

As to `COCN(C(=O)c1c(C(F)(F)F)nn(C)c1F)c1ccccc1C(C)CC(C)(C)C` (centres unmarked) [drawing 19], the Efficacy in % in the series on Podosphaera leucotricha stood at 98%.
For the compound `CCOC(=O)C(=O)N(C(=O)c1c(C)nn(C)c1F)c1ccccc1C(C)CC(C)(C)C` (centres unmarked) [drawing 24], the Efficacy in % with Botrytis cinerea is reported as 97%.
For `CCOC(=O)C(=O)N(C(=O)c1c(C)nn(C)c1F)c1ccccc1C(C)CC(C)(C)C` (centres unmarked) [drawing 22], in the series on Venturia inaequalis, the Efficacy in % worked out at 100%.
`CCOC(=O)C(=O)N(C(=O)c1c(C)nn(C)c1F)c1ccccc1C(C)CC(C)(C)C` (centres unmarked) [drawing 20] had an Efficacy in % with Podosphaera leucotricha of 97%.
`COCN(C(=O)c1c(C(F)(F)F)nn(C)c1F)c1ccccc1C(C)CC(C)(C)C` (centres unmarked) [drawing 23]: in the series with Botrytis cinerea, the Efficacy in % is reported as 100%.
`CC(=O)N(C(=O)c1c(C(F)(F)F)nn(C)c1F)c1ccccc1C(C)CC(C)(C)C` (centres unmarked) [Example 1, N-acetyl-5-fluoro-1-methyl-3-(trifluoromethyl)-N-[2-(1,3,3-trimethylbutyl)phenyl]-1H-pyrazole-4-carboxamide] yielded a chromatographic logP in series [1] of 4.63.
In the series with Venturia inaequalis, `COCN(C(=O)c1c(C(F)(F)F)nn(C)c1F)c1ccccc1C(C)CC(C)(C)C` (centres unmarked) [drawing 21] returned an Efficacy in % of 100%.
In turn, `Cc1nn(C)c(F)c1C(=O)N(C)c1ccccc1C(C)CC(C)(C)C` (centres unmarked) yielded an Efficacy in % with Puccinia recondita of 100%.
`CC(CC(C)(C)C)c1ccccc1N(C)C(=O)c1c(C(F)(F)F)nn(C)c1F` (centres unmarked): in the series with Sphaerotheca fuliginea, the Efficacy in % is 100%.
On to `CCOC(=O)C(=O)N(C(=O)c1c(C)nn(C)c1F)c1ccccc1C(C)CC(C)(C)C` (centres unmarked) [Example 2, ethyl {[(5-fluoro-1,3-dimethyl-1H-pyrazol-4-yl)carbonyl][2-(1,3,3-trimethylbutyl)phenyl]amino}(oxo)acetate], for which the chromatographic logP in series [1] was 4.4.
Still for that read-out and setting: then `CC(=O)Nc1ccccc1C(C)CC(C)C` (centres unmarked) [III-1, N-[2-(1,3-dimethylbutyl)phenyl]acetamide], with 2.65.
In the series on Sphaerotheca fuliginea, `COCN(C(=O)c1c(C(F)(F)F)nn(C)c1F)c1ccccc1C(C)CC(C)(C)C` (centres unmarked) [drawing 29] displayed an Efficacy in % of 100%.
On to `COCN(C(=O)c1c(C(F)(F)F)nn(C)c1F)c1ccccc1C(C)CC(C)(C)C` (centres unmarked) [drawing 25], for which the Efficacy in % in the series with Puccinia recondita was 100%.
`Cc1nn(C)c(F)c1C(=O)N(C)c1ccccc1C(C)CC(C)C` (centres unmarked) had an Efficacy in % with Puccinia recondita of 100%.

The values are drawn from patent publication US7834045B2, “N-substituted pyrazolyl carboxanilides” (Bayer CropScience AG, priority 2003, dated 2010).
